Assay type in all cases: cell-based
Assay [1] has as its target T1, human NMUR2 receptor (Homo sapiens, UniProt Q9GZQ4). As to the kind of experiment: IP1 Gq HTRF assay, activation of human NMUR2 in buffer. Also on record: expressed in transfected cells; host or cells: CHO-K1. The following applies: CHO-K1 cells expressing human NMUR2, stimulation buffer with 0.1% BSA; read-out: EC50 (hNMUR2) buffer. From the text:
(§1) Example 3: IP1 Gq HTRF Assay Activation of Human NMUR2 or Human NMUR1 in Buffer Application of the Homogenous Time Resolved Fluorescence (HTRF) technology optimized for Gq coupled receptors has been described in detail in the Cisbio IP-One Gq kit manual. In brief, a FRET signal (FRET: fluorescence resonance energy transfer) is generated between the donor label of an IP-One antibody (anti-IP1-Tb) and the acceptor label of a tagged IP-One (IP1-d2). Agonism of a Gq coupled receptor increases intracellular IP-One, which competes with labeled IP-One and leads to a reduction of the FRET signal. Frozen stocks of CHO-K1 cells stably expressing the human NMUR1 or NMUR2 receptor were thawed and 5000 cells were seeded in culture medium (HAM'S F12, 10% FCS) into each well of a 384-well assay plate. After seeding, cells were incubated for 24 h in a humidified incubator at 37° C. and 5% CO2. Next, cells were washed once with 50 μL of wash buffer (20 mM Hepes, 1×HBSS, pH 7.4), followed by addition of either 10 μL of stimulation buffer (20 mM Hepes, 1×HBSS, 50 mM LiCl, 0.1% BSA, pH 7.4). Peptide agonists to be tested were dissolved in 100% DMSO and pre-diluted in stimulation buffer at a suitable concentration range for an 8 pt dose-response curve. 5 μL of peptide pre-dilution were then added to each well, followed by another 5 μL of stimulation buffer to give a final concentration of 1% DMSO. Samples were subsequently incubated for 1 hour in a humidified incubator at 37° C. After addition of 5 μL each of IP1-d2 and anti-IP1-Tb, samples were incubated for another 1 hour at room temperature and FRET signals (ratio 665 nm/620 nm) were measured. EC50 values were calculated by nonlinear regression using a 4-parameter sigmoidal curve fit.

Assay [2] concerns the target T2, human NMUR1 receptor (Homo sapiens, UniProt Q9HB89).
T2 construct: expressed in transfected cells; host or cells: CHO-K1
T2 sequence (Q9HB89 1-426): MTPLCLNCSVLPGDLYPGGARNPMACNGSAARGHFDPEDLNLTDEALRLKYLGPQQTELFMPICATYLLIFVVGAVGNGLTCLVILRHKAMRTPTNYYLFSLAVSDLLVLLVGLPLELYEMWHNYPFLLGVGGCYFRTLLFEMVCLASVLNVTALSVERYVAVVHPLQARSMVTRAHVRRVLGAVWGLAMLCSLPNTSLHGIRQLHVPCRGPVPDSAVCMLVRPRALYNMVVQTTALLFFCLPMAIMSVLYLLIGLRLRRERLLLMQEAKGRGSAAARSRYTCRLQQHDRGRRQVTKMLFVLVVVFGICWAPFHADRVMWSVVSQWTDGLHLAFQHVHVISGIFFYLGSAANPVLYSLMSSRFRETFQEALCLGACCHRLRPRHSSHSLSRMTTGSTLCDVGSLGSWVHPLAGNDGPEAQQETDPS
As to the kind of experiment: IP1 Gq HTRF assay, activation of human NMUR1 in buffer. The following applies: CHO-K1 cells expressing human NMUR1, stimulation buffer with 0.1% BSA; read-out: EC50 (hNMUR1) buffer.
Excerpt: as §1

Assay [3] addresses T1, human NMUR2 receptor. As to the kind of experiment: IP1 Gq HTRF assay, activation of human NMUR2 in human plasma. Also on record: expressed in transfected cells; host or cells: CHO-K1. The following applies: CHO-K1 cells expressing human NMUR2, 100% human plasma; read-out: EC50 (hNMUR2) human plasma. The text has this: Example 4: IP1 Gq HTRF Assay Activation of Human NMUR2 in Human Plasma Application of the Homogenous Time Resolved Fluorescence (HTRF) technology optimized for Gq coupled receptors has been described in detail in the Cisbio IP-One Gq kit manual. In brief, a FRET signal is generated between the donor label of an IP-One antibody (anti-IP1-Tb) and the acceptor label of a tagged IP-One (IP1-d2). Agonism of a Gq coupled receptor increases intracellular IP-One, which competes with labeled IP-One and leads to a reduction of the FRET signal. Frozen stocks of CHO-K1 cells stably expressing the human NMUR1 receptor or human NMUR2 receptor were thawed and 5000 cells were seeded in culture medium (HAM'S F12, 10% FCS) into each well of a 384-well assay plate. After seeding, cells were incubated for 24 h in a humidified incubator at 37° C. and 5% CO2. Next, cells were washed once with […] of wash buffer (20 mM Hepes, 1×HBSS, pH 7.4), followed by addition of […] (100% human plasma, 50 mM LiCl). Peptide agonists to be tested were dissolved in 100% DMSO and pre-diluted in plasma at a suitable concentration range for an 8 pt dose-response curve. 5 μL of peptide pre-dilution were then added to each well, followed by another 5 μL of plasma to give a final concentration of 1% DMSO. Samples were subsequently incubated for 1 hour in a humidified incubator at 37° C. The plasma solution was replaced by 20 μL of stimulation buffer. After addition of 5 μL each of IP1-d2 and anti-IP1-Tb, samples were incubated for another 1 hour at room temperature and FRET signals (ratio 665 nm/620 nm) were measured. EC50 values were calculated by nonlinear regression using a 4-parameter sigmoidal curve fit.

Residues, ends and D or L forms follow the SMILES beside them.

T1 sequence (Q9GZQ4 whole entry): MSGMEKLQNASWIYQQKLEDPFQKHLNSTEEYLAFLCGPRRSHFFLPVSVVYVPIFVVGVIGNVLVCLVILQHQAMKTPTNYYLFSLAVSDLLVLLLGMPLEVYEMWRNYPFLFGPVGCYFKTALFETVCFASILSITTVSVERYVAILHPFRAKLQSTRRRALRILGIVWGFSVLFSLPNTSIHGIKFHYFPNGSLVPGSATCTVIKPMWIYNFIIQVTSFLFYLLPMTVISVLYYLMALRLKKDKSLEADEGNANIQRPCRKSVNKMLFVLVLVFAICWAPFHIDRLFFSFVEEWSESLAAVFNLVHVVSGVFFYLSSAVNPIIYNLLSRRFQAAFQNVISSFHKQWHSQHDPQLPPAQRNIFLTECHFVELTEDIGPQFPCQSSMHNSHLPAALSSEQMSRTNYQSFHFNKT

`CCCC[C@H](NC(=O)[C@H](CC(C)C)N(C)C(=O)[C@H](Cc1ccccc1)NC(=O)[C@H](Cc1ccc(O)cc1)NC(=O)CN1CCN(CCNC(=O)CN(C)C(=O)CN(C)C(=O)CN(C)C(=O)CN(C)C(=O)CN(C)C(=O)CN(C)C(=O)CN(C)C(=O)CN(C)C(=O)CN(C)C(=O)CN(C)C(=O)CN(C)C(=O)CN(C)C(=O)CC[C@H](NC(=O)CC[C@H](NC(=O)CC[C@H](NC(=O)CC[C@H](NC(=O)CCCCCCCCCCCCCCCCC(=O)O)C(=O)O)C(=O)O)C(=O)O)C(=O)O)CC1)C(=O)N[C@@H](CCCNC(=N)N)C(=O)N1CCC[C@H]1C(=O)N[C@@H](CCCNC(=N)N)C(=O)NCC(N)=O` [Compound 2, C18DA-gGlu4-Sar12-AEPipAc-Tyr-Phe-NMeLeu-Nle-Arg-Pro-Arg-Gly-NH2]: the concentration giving a half-maximal response (EC50) in assay [1] was 1.1 nM; in assay [2], 220 nM; in assay [3], 3.7 nM.

Regarding `CCCC[C@H](NC(=O)[C@H](CC(C)C)N(C)C(=O)[C@H](Cc1ccccc1)NC(=O)[C@H](Cc1ccc(O)cc1)NC(=O)CN1CCN(CCNC(=O)CN(C)C(=O)CN(C)C(=O)CN(C)C(=O)CN(C)C(=O)CN(C)C(=O)CN(C)C(=O)CN(C)C(=O)CN(C)C(=O)CN(C)C(=O)CN(C)C(=O)CN(C)C(=O)CN(C)C(=O)CN(C)C(=O)CN(C)C(=O)CN(C)C(=O)CC[C@H](NC(=O)CC[C@H](NC(=O)CC[C@H](NC(=O)CC[C@H](NC(=O)CCCCCCCCCCCCCCCCCCC(=O)O)C(=O)O)C(=O)O)C(=O)O)C(=O)O)CC1)C(=O)N[C@@H](CCCN)C(=O)N1CCC[C@H]1C(=O)N[C@@H](CCCNC(=N)N)C(=O)NCC(N)=O` [Compound 3, C20DA-gGlu4-Sar15-AEPipAc-Tyr-Phe-NMeLeu-Nle-Orn-Pro-Arg-Gly-NH2] (HELM PEPTIDE1{[O=C(O)CCCCCCCCCCCCCCCCCCC(=O)[*:2]].[gGlu].[gGlu].[gGlu].[gGlu].[Sar].[Sar].[Sar].[Sar].[Sar].[Sar].[Sar].[Sar].[Sar].[Sar].[Sar].[Sar].[Sar].[Sar].[Sar].[O=C(CN1CCN(CCN[*:1])CC1)[*:2]].Y.F.[meL].[Nle].[Orn].P.R.G.[am]}$$$$V2.0), the EC50 in assay [1] came out at 1.9 nM; in assay [2], 440 nM; in assay [3], 5.6 nM.

Consider `CCCC[C@H](NC(=O)[C@H](CC(C)C)N(C)C(=O)[C@H](Cc1ccccc1)NC(=O)[C@H](Cc1ccc(O)cc1)NC(=O)CN1CCN(CCNC(=O)CN(C)C(=O)CN(C)C(=O)CN(C)C(=O)CN(C)C(=O)CN(C)C(=O)CN(C)C(=O)CN(C)C(=O)CN(C)C(=O)CN(C)C(=O)CN(C)C(=O)CN(C)C(=O)CN(C)C(=O)CN(C)C(=O)CN(C)C(=O)CN(C)C(=O)CC[C@H](NC(=O)CC[C@H](NC(=O)CC[C@H](NC(=O)CC[C@H](NC(=O)CCCCCCCCCCCCCCCCCCC(=O)O)C(=O)O)C(=O)O)C(=O)O)C(=O)O)CC1)C(=O)N[C@@H](CCN)C(=O)N1CCC[C@H]1C(=O)N[C@@H](CCCNC(=N)N)C(=O)NCC(N)=O` [Compound 4, C20DA-gGlu4-Sar15-AEPipAc-Tyr-Phe-NMeLeu-Nle-Dbu-Pro-Arg-Gly-NH2] (HELM PEPTIDE1{[O=C(O)CCCCCCCCCCCCCCCCCCC(=O)[*:2]].[gGlu].[gGlu].[gGlu].[gGlu].[Sar].[Sar].[Sar].[Sar].[Sar].[Sar].[Sar].[Sar].[Sar].[Sar].[Sar].[Sar].[Sar].[Sar].[Sar].[O=C(CN1CCN(CCN[*:1])CC1)[*:2]].Y.F.[meL].[Nle].[Dab].P.R.G.[am]}$$$$V2.0), for which the EC50 in assay [1] was 2 nM; in assay [2], 770 nM; in assay [3], 5.8 nM.

For `CCCC[C@H](NC(=O)[C@H](CC(C)C)N(C)C(=O)[C@H](Cc1ccccc1)NC(=O)[C@H](Cc1ccc(O)cc1)NC(=O)CN1CCN(CCNC(=O)CN(C)C(=O)CN(C)C(=O)CN(C)C(=O)CN(C)C(=O)CN(C)C(=O)CN(C)C(=O)CN(C)C(=O)CN(C)C(=O)CN(C)C(=O)CN(C)C(=O)CN(C)C(=O)CN(C)C(=O)CC[C@H](NC(=O)CC[C@H](NC(=O)CC[C@H](NC(=O)CC[C@H](NC(=O)CCCCCCCCCCCCCCCCCCC(=O)O)C(=O)O)C(=O)O)C(=O)O)C(=O)O)CC1)C(=O)N[C@@H](CCCN)C(=O)N(C)[C@@H](C)C(=O)N[C@@H](CCCNC(=N)N)C(=O)NCC(N)=O` [Compound 13, C20DA-gGlu4-Sar12-AEPipAc-Tyr-Phe-NMeLeu-Nle-Orn-NMeAla-Arg-Gly-NH2], the concentration for a half-maximal effect (EC50) in assay [1] turned out to be 3.5 nM; in assay [2], 1200 nM; in assay [3], 10.2 nM.

On to `CCCC[C@H](NC(=O)[C@H](CC(C)C)N(C)C(=O)[C@H](Cc1ccccc1)NC(=O)[C@H](Cc1ccc(O)cc1)NC(=O)CN1CCN(C(=O)CN(C)C(=O)CN(C)C(=O)CN(C)C(=O)CN(C)C(=O)CN(C)C(=O)CN(C)C(=O)CN(C)C(=O)CN(C)C(=O)CN(C)C(=O)CN(C)C(=O)CN(C)C(=O)CN(C)C(=O)CC[C@H](NC(=O)CC[C@H](NC(=O)CC[C@H](NC(=O)CCCCCCCCCCCCCCCCCCC(=O)O)C(=O)O)C(=O)O)C(=O)O)CC1)C(=O)N[C@@H](CCCNC(=N)N)C(=O)N1CCC[C@H]1C(=O)N[C@@H](CCCNC(=N)N)C(=O)NCC(N)=O` [Compound 78, C20DA-gGlu3-Sar12-PipAc-Tyr-Phe-NMeLeu-Nle-Arg-Pro-Arg-Gly-NH2], for which the 50% effective concentration (EC50) in assay [1] was found to be 1.2 nM; in assay [3], 5.3 nM.

For the compound `CCCC[C@H](NC(=O)[C@H](CC(C)C)N(C)C(=O)[C@H](Cc1ccccc1)NC(=O)[C@H](Cc1ccc(O)cc1)NC(=O)CN1CCN(C(=O)CN(C)C(=O)CN(C)C(=O)CN(C)C(=O)CN(C)C(=O)CN(C)C(=O)CN(C)C(=O)CN(C)C(=O)CN(C)C(=O)CN(C)C(=O)CN(C)C(=O)CN(C)C(=O)CN(C)C(=O)CN(C)C(=O)CN(C)C(=O)CN(C)C(=O)CC[C@H](NC(=O)CC[C@H](NC(=O)CC[C@H](NC(=O)CCCCCCCCCCCCCCCCCCC(=O)O)C(=O)O)C(=O)O)C(=O)O)CC1)C(=O)N[C@@H](CCCN)C(=O)N1CCC[C@H]1C(=O)N[C@@H](CCCNC(=N)N)C(=O)NCC(N)=O` [Compound 80, C20DA-gGlu3-Sar15-PipAc-Tyr-Phe-NMeLeu-Nle-Orn-Pro-Arg-Gly-NH2] (HELM PEPTIDE1{[O=C(O)CCCCCCCCCCCCCCCCCCC(=O)[*:2]].[gGlu].[gGlu].[gGlu].[Sar].[Sar].[Sar].[Sar].[Sar].[Sar].[Sar].[Sar].[Sar].[Sar].[Sar].[Sar].[Sar].[Sar].[Sar].[O=C(CN1CCN([*:1])CC1)[*:2]].Y.F.[meL].[Nle].[Orn].P.R.G.[am]}$$$$V2.0), the EC50 in assay [1] is 1.9 nM; in assay [3], 7.1 nM.
